Test results published in US10036048B1, “Process for obtaining a naphthoquinone derivative from Streptomyces sp” (KING SAUD UNIVERSITY, priority 2017, dated 2018).
Converted amounts (≈) assume the structure as drawn.

Tests used:
Proteus vulgaris = assay: Minimum inhibitory concentration (MIC), broth dilution; details: 24 h, read-out: Minimum Inhibitory Concentration (MIC)
Shigella flexneri = assay: as above; details: 24 h, read-out: Minimum Inhibitory Concentration (MIC)
[1] = test system: Escherichia coli (ESBL-3904); assay: Minimum inhibitory concentration (MIC), clinical isolate; details: 24 h, read-out: Minimum Inhibitory Concentration (MIC)
[2] = test system: Kiebsiella pneumoniae (ESBL-75799); assay: as above; details: 24 h, read-out: Minimum Inhibitory Concentration (MIC)
Klebsiella pneumoniae = assay: Minimum inhibitory concentration (MIC), broth dilution; details: 24 h, read-out: Minimum Inhibitory Concentration (MIC)
[3] = test system: Klebsiella pneumoniae (ESBL-3894); assay: Minimum inhibitory concentration (MIC), clinical isolate; details: 24 h, read-out: Minimum Inhibitory Concentration (MIC)
[4] = test system: Staphylococcus epidermidis; assay: Minimum inhibitory concentration (MIC), broth dilution; details: 24 h, read-out: Minimum Inhibitory Concentration (MIC)
Pseudomonas aeruginosa = assay: as above; details: 24 h, read-out: Minimum Inhibitory Concentration (MIC)
Enterobacter aerogenes = assay: as above; details: Klebsiella aerogenes, 24 h, read-out: Minimum Inhibitory Concentration (MIC)
[5] = test system: Staphylococcus aureus (MRSA); assay: Minimum inhibitory concentration (MIC), clinical isolate; details: 24 h, read-out: Minimum Inhibitory Concentration (MIC)
[6] = test system: Escherichia coli (ESBL-3984); assay: as above; details: 24 h, read-out: Minimum Inhibitory Concentration (MIC)
Candida albicans = assay: Minimum inhibitory concentration (MIC), fungi; details: read-out: Minimum Inhibitory Concentration (MIC)
[7] = test system: Klebsiella pneumoniae (ESBL-3971); assay: Minimum inhibitory concentration (MIC), clinical isolate; details: 24 h, read-out: Minimum Inhibitory Concentration (MIC)
[8] = test system: Klebsiella pneumoniae (ESBL-3967); assay: as above; details: 24 h, read-out: Minimum Inhibitory Concentration (MIC)
Staphylococcus aureus = assay: Minimum inhibitory concentration (MIC), broth dilution; details: 24 h, read-out: Minimum Inhibitory Concentration (MIC)
Bacillus subtilis = assay: as above; details: 24 h, read-out: Minimum Inhibitory Concentration (MIC)
Micrococcus luteus = assay: as above; details: 24 h, read-out: Minimum Inhibitory Concentration (MIC)
Malassezia pachydermatis = assay: Minimum inhibitory concentration (MIC), fungi; details: read-out: Minimum Inhibitory Concentration (MIC)
Salmonella paratyphi-B = assay: Minimum inhibitory concentration (MIC), broth dilution; type: cell-based; details: 24 h at 37° C.
Salmonella typhimurium = assay: as above; details: Salmonella enterica, 24 h, read-out: Minimum Inhibitory Concentration (MIC)
[9] = test system: A549 lung adenocarcinoma cancer cell line; assay: Cytotoxic activity (MTT, absorbance at 540 nm); type: cell-based, human
Description: A549 lung adenocarcinoma cancer cell line was obtained from the National Institute of Cell Sciences, Pune. A549 cell line was maintained in complete tissue culture medium Dulbecco's Modified Eagle's Medium with 10% Fetal Bovine Serum and 2 mM L-Glutamine, along with antibiotics (about 100 International Unit/mL of penicillin, 100 μg/mL of streptomycin) with the pH adjusted to 7.2. The cytotoxicity was determined according to the method of Balachandran et al., (2013) with some changes. Cells (5000 cells/well) were seeded in 96 well plates containing medium with different concentrations such as 100, 80, 60, 40, 20, and 10 μg/mL. The cells were cultivated at 37° C. with 5% CO2 and 95% air in 100% relative humidity. After various durations of cultivation, the solution in the medium was removed. An aliquot of 100 μL of medium containing 1 mg/mL of 3-(4,5-dimethylthiazol-2-yl)-2,5-diphenyl-tetrazolium bromide was loaded in the plate. The cells were cultured for 4 h and then the solution in the medium was removed. An aliquot of 100 μL of DMSO was added to the plate, which was shaken until the crystals were dissolved. The cytotoxicity against cancer cells was determined by measuring the absorbance of the converted dye at 540 nm in an Enzyme linked immune sorbant assay (ELISA) reader. Cytotoxicity of each sample was expressed as the half maximal inhibitory concentration (IC50) value. The IC50 value is the concentration of test sample that causes 50% inhibition of cell growth, averaged from three replicate experiments.

[10] = test system: Streptomyces sp. isolate ERINLG-201; assay: Antibiotic sensitivity of the isolate; type: cell-based
Description: (ERINLG-201). The Streptomyces sp. isolate ERINLG-201 was recovered from Kodanad forest, (Southern Western Ghats) Tamil Nadu, India. The strain was Gram-positive filamentous bacterium. The culture characteristics of the new isolate were observed after 7, 14 and 21 days of incubation on different media. The color of the substrate mycelia was white. […] The temperature for growth ranged from 25 to 37° C. with optimum of 30° C. and the pH range was 6-12 with normal pH of 7. Utilization of various carbon sources by ERINLG-201 indicated a wide pattern of carbon source assimilation. […] The partial 16S rRNA gene sequences of isolate ERINLG-201 have been deposited in the GenBank database under accession number KC820651.

CN1C(=O)N2CC(C)(OC3=C2C(=O)c2ccccc2C3=O)c2ccccc21 (stereo not drawn) [C-5, Bluemomycin]
MIC (Proteus vulgaris): 100 µg/mL (≈ 277 µM)
MIC (Shigella flexneri): 12.5 µg/mL (≈ 34.7 µM)
MIC [1]: 25 µg/mL (≈ 69.4 µM)
MIC [2]: 12.5 µg/mL (≈ 34.7 µM)
MIC (Klebsiella pneumoniae): 6.25 µg/mL (≈ 17.3 µM)
MIC [3]: 12.5 µg/mL (≈ 34.7 µM)
MIC [4]: 50 µg/mL (≈ 139 µM)
MIC (Pseudomonas aeruginosa): 12.5 µg/mL (≈ 34.7 µM)
MIC (Enterobacter aerogenes): 12.5 µg/mL (≈ 34.7 µM)
MIC [5]: 25 µg/mL (≈ 69.4 µM)
MIC [6]: 12.5 µg/mL (≈ 34.7 µM)
MIC (Candida albicans): 50 µg/mL (≈ 139 µM)
MIC [7]: > 100 µg/mL
MIC [8]: 6.25 µg/mL (≈ 17.3 µM)
MIC (Staphylococcus aureus): > 100 µg/mL
MIC (Bacillus subtilis): 50 µg/mL (≈ 139 µM)
MIC (Micrococcus luteus): 25 µg/mL (≈ 69.4 µM)
MIC (Malassezia pachydermatis): 50 µg/mL (≈ 139 µM)
MIC (Salmonella paratyphi-B): 25 µg/mL (≈ 69.4 µM)
MIC (Salmonella typhimurium): 12.5 µg/mL (≈ 34.7 µM)
% (cytotoxicity) ([9]; 5 μg/mL): 10.5%
% (cytotoxicity) ([9]; 10 μg/mL): 26.3%
% (cytotoxicity) ([9]; 20 μg/mL): 51.7%
% (cytotoxicity) ([9]; 40 μg/mL): 60.2%
% (cytotoxicity) ([9]; 60 μg/mL): 68.6%
% (cytotoxicity) ([9]; 80 μg/mL): 78.6%
% (cytotoxicity) ([9]; 100 μg/mL): 88.7%

CC(=O)N1CCN(c2ccc(OCC3COC(Cn4ccnc4)(c4ccc(Cl)cc4Cl)O3)cc2)CC1 (stereo not drawn) [Ketoconazole]
MIC (Candida albicans): 25 µg/mL (≈ 47 µM)
MIC (Malassezia pachydermatis): 25 µg/mL (≈ 47 µM)

[H]/N=C(/N)N[C@H]1[C@H](O)[C@@H](O)[C@H](O[C@@H]2O[C@@H](C)[C@](O)(C=O)[C@H]2O[C@@H]2O[C@@H](CO)[C@H](O)[C@@H](O)[C@@H]2NC)[C@@H](N/C(N)=N\[H])[C@@H]1O [Streptomycin]
MIC (Proteus vulgaris): 6.25 µg/mL (≈ 10.7 µM)
MIC (Shigella flexneri): 6.25 µg/mL (≈ 10.7 µM)
MIC [1]: 25 µg/mL (≈ 43 µM)
MIC [2]: 25 µg/mL (≈ 43 µM)
MIC (Klebsiella pneumoniae): 25 µg/mL (≈ 43 µM)
MIC [3]: 6.25 µg/mL (≈ 10.7 µM)
MIC [4]: 25 µg/mL (≈ 43 µM)
MIC (Pseudomonas aeruginosa): 25 µg/mL (≈ 43 µM)
MIC (Enterobacter aerogenes): 25 µg/mL (≈ 43 µM)
MIC [5]: 6.25 µg/mL (≈ 10.7 µM)
MIC [6]: 25 µg/mL (≈ 43 µM)
MIC [7]: 6.25 µg/mL (≈ 10.7 µM)
MIC [8]: 25 µg/mL (≈ 43 µM)
MIC (Staphylococcus aureus): 6.25 µg/mL (≈ 10.7 µM)
MIC (Bacillus subtilis): 25 µg/mL (≈ 43 µM)
MIC (Micrococcus luteus): 6.25 µg/mL (≈ 10.7 µM)
MIC (Salmonella paratyphi-B): 6.25 µg/mL (≈ 10.7 µM)
MIC (Salmonella typhimurium): 25 µg/mL (≈ 43 µM)

NCC[C@H](O)C(=O)N[C@@H]1C[C@H](N)[C@@H](O[C@H]2O[C@H](CN)[C@@H](O)[C@H](O)[C@H]2O)[C@H](O)[C@H]1O[C@H]1O[C@H](CO)[C@@H](O)[C@H](N)[C@H]1O [amikacin]
sensitivity of ERINLG-201 towards antibiotic [10]: sensitivity

CC1(C)S[C@@H]2[C@H](NC(=O)[C@H](N)c3ccccc3)C(=O)N2[C@H]1C(=O)O [ampicillin]
sensitivity of ERINLG-201 towards antibiotic [10]: sensitivity

O=C(Cc1cccs1)N[C@@H]1C(=O)N2C(C(=O)[O-])=C(C[n+]3ccccc3)CS[C@H]12 [cephaloridine]
sensitivity of ERINLG-201 towards antibiotic [10]: sensitivity

O=C(O)c1cn(C2CC2)c2cc(N3CCNCC3)c(F)cc2c1=O [ciprofloxacin]
sensitivity of ERINLG-201 towards antibiotic [10]: sensitivity

CC[C@H]1OC(=O)[C@H](C)[C@@H](O[C@H]2C[C@@](C)(OC)[C@@H](O)[C@H](C)O2)[C@H](C)[C@@H](O[C@@H]2O[C@H](C)C[C@H](N(C)C)[C@H]2O)[C@](C)(O)C[C@@H](C)C(=O)[C@H](C)[C@@H](O)[C@]1(C)O [erythromycin]
sensitivity of ERINLG-201 towards antibiotic [10]: sensitivity

CCn1cc(C(=O)O)c(=O)c2cc(F)c(N3CCNCC3)cc21 [norfloxacin]
sensitivity of ERINLG-201 towards antibiotic [10]: sensitivity

CO[C@H]1/C=C/O[C@@]2(C)Oc3c(C)c(O)c4c(O)c(cc(O)c4c3C2=O)NC(=O)/C(C)=C\C=C\[C@H](C)[C@H](O)[C@@H](C)[C@@H](O)[C@@H](C)[C@H](OC(C)=O)[C@@H]1C [rifamycin]
sensitivity of ERINLG-201 towards antibiotic [10]: sensitivity

gentamicin
sensitivity of ERINLG-201 towards antibiotic [10]: sensitivity

penicillin
sensitivity of ERINLG-201 towards antibiotic [10]: sensitivity

vencomycin
sensitivity of ERINLG-201 towards antibiotic [10]: sensitivity
